Experimental data reported in the Deep4Chem optical property database.
Each block holds one compound with its values, some of them ahead of it.

Assay: solvent given as SMILES

absorption maximum (in ClCCl): 407 nm
SMILES: N#Cc1ccc(N(c2ccccc2)c2ccc3ccc4c(N(c5ccccc5)c5ccc(C#N)cc5)ccc5ccc2c3c54)cc1

SMILES: ClP1(Cl)=NP(Cl)(Cl)=NP(Cl)(Oc2ccc3ccc4cccc5ccc2c3c45)=N1 (stereo not given)
absorption maximum (in ClCCl): 343 nm

absorption maximum (in CC#N): 340 nm
SMILES: N#Cc1nn(-c2ccccc2)nc1N1CCCC1

absorption maximum (in ClC(Cl)Cl): 351 nm
SMILES: CC(=O)OCCN1C(=O)c2cccc3c(Oc4ccc(C#N)cc4)ccc(c23)C1=O

SMILES: c1ccc(N(c2ccccc2)c2ccc(-c3cccc4nc5ccccc5cc34)cc2)cc1
absorption maximum (in C1CCOC1): 391 nm
absorption maximum (in CC#N): 390 nm
absorption maximum (in CC(C)OC(C)C): 389 nm
absorption maximum (in CCCCCC): 386 nm
absorption maximum (in CCCCOCCCC): 390 nm
absorption maximum (in CCN(CC)CC): 389 nm
absorption maximum (in CCOC(C)=O): 390 nm
absorption maximum (in CCOCC): 386 nm
absorption maximum (in CN(C)C=O): 390 nm
absorption maximum (in ClCCl): 396 nm

absorption maximum (in O): 506 nm
SMILES: CC(=O)OCOC(=O)CN(CC(=O)OCOC(C)=O)c1ccccc1OCCOc1cc(NC(=O)c2ccc3c(c2)C(=O)OC32c3cc(Cl)c(OC(C)=O)cc3Oc3cc(OC(C)=O)c(Cl)cc32)ccc1N(CC(=O)OCOC(C)=O)CC(=O)OCOC(C)=O

absorption maximum (in CC#N): 392 nm
absorption maximum (in CCO): 389 nm
absorption maximum (in O): 383 nm
SMILES: CC(=O)OC[C@@H]1O[C@H](n2cnc3c2N=CN2Cc4c[n+](C)c(C)nc4N=C32)[C@@H](O)[C@H]1O

absorption maximum (in C1CCOC1): 366 nm
SMILES: N#Cc1ccc(/C=C/c2ccc(C=C(c3ccccc3)c3ccccc3)cc2)cc1

absorption maximum (in CC#N): 465 nm
SMILES: Cc1ccc(S(=O)(=O)Nc2c(/C=C/c3ccccc3)sc(-c3ccc(N(C)C)cc3)c2-c2ccsc2)cc1

absorption maximum (in ClCCl): 377 nm
SMILES: CC(C)(C)c1ccc2c(c1)c1ncncc1c1c3ccccc3sc21

absorption maximum (in ClCCl): 704 nm
SMILES: N#Cc1ccc(/C2=C3N=C(C(c4ccccc4)=C/3c3ccccc3)/C(c3ccc(C#N)cc3)=c3\[nH]/c(c(-c4ccccc4)c3-c3ccccc3)=C(/c3ccc(C#N)cc3)C3=N/C(=C(/c4ccc(C#N)cc4)c4[nH]c2c(-c2ccccc2)c4-c2ccccc2)C(c2ccccc2)=C3c2ccccc2)cc1

absorption maximum (in C1CCCCC1): 312 nm
absorption maximum (in CC#N): 314 nm
absorption maximum (in CO): 315 nm
SMILES: Cc1cc(C)c(C)c(-c2ccc3cc(C)c(=O)oc3c2)c1C

absorption maximum (in CC#N): 489 nm
absorption maximum (in O): 468 nm
SMILES: Nc1n[n+]([O-])c2cc(F)ccc2[n+]1[O-]

absorption maximum (in C1CCOC1): 346 nm
SMILES: c1cc2ccc1-c1ccc(cc1)-c1ccc(s1)-c1ccc(cc1)-c1ccc(cc1)-c1ccc(s1)-c1ccc(cc1)-c1ccc(cc1)-c1ccc-2s1

absorption maximum (in CC#N): 345 nm
absorption maximum (in ClCCl): 365 nm
SMILES: Cc1cc(-c2ccc(C(C)(C)C)cc2)cc(C)[o+]1

absorption maximum (in CS(C)=O): 656 nm
SMILES: COc1ccc(C2=[N+]3C(=Nc4c(C)cc(-c5ccc(OC)cc5)n4[B-]3(F)F)C(C)=C2)cc1

SMILES: C(#Cc1ccc2ccc3cccc4ccc1c2c34)c1ccccc1
absorption maximum (in Cc1ccccc1): 362 nm

absorption maximum (in CS(C)=O): 398 nm
SMILES: COc1ccc(-c2cc(/C=C/c3ccc(N(c4ccccc4)c4ccccc4)cc3)c(C#N)c(N3CCCCC3)c2)cc1

absorption maximum (in C1CCOC1): 393 nm
absorption maximum (in CC#N): 394.5 nm
absorption maximum (in CCO): 397 nm
absorption maximum (in CN(C)C=O): 396.5 nm
absorption maximum (in CO): 397 nm
absorption maximum (in CS(C)=O): 398.5 nm
SMILES: CSc1sc(C(N)=O)c2nnn(C)c(=O)c12

absorption maximum (in ClCCl): 341 nm
SMILES: c1ccc2c(c1)-c1ccccc1C21c2cc(-c3ccc(-n4c5ccccc5c5ccccc54)cc3)ccc2Sc2ccc(-c3ccc(-n4c5ccccc5c5ccccc54)cc3)cc21

absorption maximum (in ClC(Cl)Cl): 524 nm
SMILES: C[Si](C)(C)C#Cc1c2c(=O)c3ccccc3c2c(C#C[Si](C)(C)C)c2c(=O)c3ccccc3c12

absorption maximum (in ClCCl): 451 nm
SMILES: CCCCOc1c(OC)cc2cc(OC)c(OCCCC)c3c4c(OCCCC)c(OC)cc5cc(OC)c(OCCCC)c(c1c23)c54

SMILES: c1ccc(-c2nc(-c3ccccc3)nc(-c3ccc(-n4c5ccccc5c5cc(-c6ccc7sc8ccccc8c7c6)ccc54)cc3)n2)cc1
absorption maximum (in Cc1ccccc1): 370 nm

absorption maximum (in CCCCCCC): 405 nm
SMILES: c1cc2c3c(cccc3c1)-c1cc3c(ccc4ccccc43)cc1-2

absorption maximum (in ClCCl): 401 nm
SMILES: F[B-]1(F)OC(C#Cc2ccccc2)=CC(c2ccccc2)=[O+]1

absorption maximum (in O): 276 nm
SMILES: Cc1ccc(O)cc1

absorption maximum (in CC#N): 318 nm
SMILES: COc1ccccc1-n1nc(C#N)c(N2CCCC2)n1

absorption maximum (in CC#N): 537 nm
absorption maximum (in CCO): 531 nm
absorption maximum (in ClCCl): 539 nm
absorption maximum (in O): 522 nm
SMILES: C=CCNc1ccc2ccc3oc4cc(=O)ccc-4nc3c2c1

absorption maximum (in ClCCl): 357 nm
SMILES: COc1ccc(-c2cc3c(ccc4sc5ccc6sccc6c5c43)s2)cc1

SMILES: CN(C)c1ccc2c3c(ccc2c1)C(=O)CCC3
absorption maximum (in C1CCCCC1): 347 nm
absorption maximum (in CC#N): 356 nm
absorption maximum (in CC(C)O): 368 nm
absorption maximum (in CCC(C)=O): 356 nm
absorption maximum (in CCO): 369 nm
absorption maximum (in CCOC(C)=O): 353 nm
absorption maximum (in CS(C)=O): 363 nm
absorption maximum (in Cc1ccccc1): 353 nm
absorption maximum (in ClCCl): 358 nm
absorption maximum (in Clc1ccccc1): 357 nm

SMILES: CC\C=C/C=C/C=C/C=C\CCCCCCCC(=O)O
absorption maximum (in C1COCCO1): 322.7 nm
absorption maximum (in CCCCCC): 318.9 nm
absorption maximum (in CCCCCCCCCC): 320.8 nm
absorption maximum (in CCCCO): 320.6 nm
absorption maximum (in CCO): 319.2 nm
absorption maximum (in CCOCC): 318.8 nm
absorption maximum (in CO): 318.6 nm
absorption maximum (in ClC(Cl)Cl): 324.8 nm
absorption maximum (in c1ccccc1): 325.3 nm

absorption maximum (in CCO): 325 nm
SMILES: C#Cc1ccc2c(C)cc(=O)oc2c1

SMILES: FC(F)(F)c1ccc(-c2c3cccc4c5cccc6c(-c7ccc(C(F)(F)F)cc7)c7cccc8c9cccc2c9c(c34)c(c65)c78)cc1
absorption maximum (in Cc1ccccc1): 683 nm

SMILES: CCCCCCCCn1c2cc(/C=C/c3ccc(N(c4ccccc4)c4ccccc4)cc3)ccc2c2cc3c(cc21)c1ccc(/C=C/c2ccc(N(c4ccccc4)c4ccccc4)cc2)cc1n3CCCCCCCC
absorption maximum (in Cc1ccccc1): 416 nm

SMILES: COc1ccccc1C1=NC2c3cccc4cccc(c34)C2N1c1ccccc1 (stereo not given)
absorption maximum (in Cc1ccccc1): 312 nm

SMILES: CC(C)(C)c1ccc(C2=CC3=C(c4ccccc4)c4cc(-c5ccc(C(C)(C)C)cc5)c(-c5ccc(C(C)(C)C)cc5)n4[B-](F)(F)[N+]3=C2c2ccc(C(C)(C)C)cc2)cc1
absorption maximum (in C1CCCCC1): 602 nm
absorption maximum (in C1CCOC1): 601 nm
absorption maximum (in CC#N): 590 nm
absorption maximum (in Cc1ccccc1): 605 nm
absorption maximum (in ClCCl): 598 nm

SMILES: COC(=O)/C(C#N)=C/c1cn(-c2ccccc2)nc1-c1ccc([N+](=O)[O-])cc1
absorption maximum (in C1CCOC1): 333 nm
absorption maximum (in C1COCCO1): 333 nm
absorption maximum (in CCO): 335 nm
absorption maximum (in CCOC(C)=O): 330 nm
absorption maximum (in CN(C)C=O): 330 nm
absorption maximum (in CO): 330 nm
absorption maximum (in CS(C)=O): 330 nm
absorption maximum (in Cc1ccccc1): 347 nm
absorption maximum (in ClC(Cl)Cl): 339 nm

SMILES: CC[n+]1c(/C=C/c2c([O-])ccc3ccc(=O)oc23)sc2ccccc21
absorption maximum (in C1CCOC1): 607.14 nm
absorption maximum (in CC#N): 579.15 nm
absorption maximum (in CC(C)=O): 590.56 nm
absorption maximum (in CO): 519.07 nm
absorption maximum (in CS(C)=O): 581.28 nm
absorption maximum (in Cc1ccccc1): 623.57 nm
absorption maximum (in ClC(Cl)Cl): 593.91 nm
absorption maximum (in ClCCl): 597.56 nm
absorption maximum (in O): 492.76 nm

SMILES: c1ccc(-p2c(-c3cccs3)cc3ccccc32)cc1 (stereo not given)
absorption maximum (in C1CCOC1): 350 nm

absorption maximum (in ClCCl): 431 nm
SMILES: F[B-]1(F)OC(C#Cc2ccccc2)=C2CCc3ccccc3C2=[O+]1
